This is an account of results in patent publication US20130303509A1, “NAMPT INHIBITORS” (AbbVie Inc., priority 2012, published 2013).

SMILES strings stand for the structures. pIC50: −log10 of the molar value.

The subject of the assay is PC3 cells. Put plainly: NAMPT Cell Proliferation Assay. Conditions: Homo sapiens, PC-3, 120 h, 5 days incubation, cell viability by Cell Titer Glo. The format is cell-based. The method, boiled down:
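Five-day CellTiter-Glo viability readout in PC3 cells grown in RPMI/10% heat-inactivated FBS. Compounds added after overnight attachment as a 10-fold dilution series, […]. Percent inhibition fitted to sigmoidal dose-response to derive IC50.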
`O=C(Nc1ccc(OC2CCN(C(=O)c3ccc(Cl)cc3)CC2)cc1)C1CN(c2cccnn2)C1` [Example 245, N-(4-{[1-(4-chlorobenzoyl)piperidin-4-yl]oxy}phenyl)-1-(pyridazin-3-yl)azetidine-3-carboxamide] gave a pIC50 of 8.15.

For `COCC(=O)N1CCC(Oc2ccc(NC(=O)C3CN(c4cccnn4)C3)cc2)CC1` [Example 246, N-(4-{[1-(methoxyacetyl)piperidin-4-yl]oxy}phenyl)-1-(pyridazin-3-yl)azetidine-3-carboxamide], the pIC50 was 8.02.

Turning to `O=C(Nc1ccc(OC2CCN(C(=O)Cc3ccccc3F)CC2)cc1)C1CN(c2cccnn2)C1` [Example 247, N-[4-({1-[(2-fluorophenyl)acetyl]piperidin-4-yl}oxy)phenyl]-1-(pyridazin-3-yl)azetidine-3-carboxamide], the pIC50 is 8.10.

As for `CCC(C)(C)C(=O)N1CCC(Oc2ccc(NC(=O)C3CN(c4cccnn4)C3)cc2)CC1` [Example 248, N-(4-{[1-(2,2-dimethylbutanoyl)piperidin-4-yl]oxy}phenyl)-1-(pyridazin-3-yl)azetidine-3-carboxamide], the pIC50 is 8.18.

`O=C(Nc1ccc(OC2CCN(C(=O)c3cccs3)CC2)cc1)C1CN(c2cccnn2)C1` [Example 249, 1-(pyridazin-3-yl)-N-(4-{[1-(thiophen-2-ylcarbonyl)piperidin-4-yl]oxy}phenyl)azetidine-3-carboxamide] showed a pIC50 of 8.63.

Compound `O=C(Nc1ccc(OC2CCN(C(=O)c3cccc(Cl)c3)CC2)cc1)C1CN(c2cccnn2)C1` [Example 250, N-(4-{[1-(3-chlorobenzoyl)piperidin-4-yl]oxy}phenyl)-1-(pyridazin-3-yl)azetidine-3-carboxamide] had a pIC50 of 8.04.

`O=C(Nc1ccc(OC2CCN(C(=O)C3CC3)CC2)cc1)C1CN(c2cccnn2)C1` [Example 251, N-(4-{[1-(cyclopropylcarbonyl)piperidin-4-yl]oxy}phenyl)-1-(pyridazin-3-yl)azetidine-3-carboxamide] gave a pIC50 of 8.10.

`O=C(Nc1ccc(OC2CCN(C(=O)CC(F)(F)F)CC2)cc1)C1CN(c2cccnn2)C1` [Example 252, 1-(pyridazin-3-yl)-N-(4-{[1-(3,3,3-trifluoropropanoyl)piperidin-4-yl]oxy}phenyl)azetidine-3-carboxamide] showed a pIC50 of 8.02.

In turn, `CC(C)C(=O)N1CCC(Oc2ccc(NC(=O)C3CN(c4cccnn4)C3)cc2)CC1` [Example 253, N-(4-{[1-(2-methylpropanoyl)piperidin-4-yl]oxy}phenyl)-1-(pyridazin-3-yl)azetidine-3-carboxamide] showed a negative-log IC50 (pIC50) of 8.09. The pIC50 values of the last two compounds are within 0.2 log units of each other.

Turning to `CC(C)(C)CC(=O)N1CC(Oc2ccc(NC(=O)C3CN(c4ccnnc4)C3)cc2)C1` [Example 254, N-(4-{[1-(3,3-dimethylbutanoyl)azetidin-3-yl]oxy}phenyl)-1-(pyridazin-4-yl)azetidine-3-carboxamide], the pIC50 was 7.92.

As for `O=C(Nc1ccc(OC2CN(C(=O)C3CCCCC3)C2)cc1)C1CN(c2ccnnc2)C1` [Example 255, N-(4-{[1-(cyclohexylcarbonyl)azetidin-3-yl]oxy}phenyl)-1-(pyridazin-4-yl)azetidine-3-carboxamide], the pIC50 is 7.62. Against the preceding compound, the pIC50 is 0.30 log units lower.

For the compound `O=C(Nc1ccc(OC2CN(C(=O)CC3CCOCC3)C2)cc1)C1CN(c2ccnnc2)C1` [Example 256, 1-(pyridazin-4-yl)-N-(4-{[1-(tetrahydro-2H-pyran-4-ylacetyl)azetidin-3-yl]oxy}phenyl)azetidine-3-carboxamide], the pIC50 was 6.84.

Regarding `CC1CC1C(=O)N1CC(Oc2ccc(NC(=O)C3CN(c4ccnnc4)C3)cc2)C1` (stereo not drawn) [Example 257, N-[4-({1-[(2-methylcyclopropyl)carbonyl]azetidin-3-yl}oxy)phenyl]-1-(pyridazin-4-yl)azetidine-3-carboxamide], the pIC50 was 7.12.

`O=C(Nc1ccc(OC2CN(C(=O)CC(F)(F)F)C2)cc1)C1CN(c2ccnnc2)C1` [Example 258, 1-(pyridazin-4-yl)-N-(4-{[1-(3,3,3-trifluoropropanoyl)azetidin-3-yl]oxy}phenyl)azetidine-3-carboxamide] showed a pIC50 of 6.51.

Regarding `O=C(Nc1ccc(OC2CN(C(=O)C3CCCC3)C2)cc1)C1CN(c2ccnnc2)C1` [Example 259, N-(4-{[1-(cyclopentylcarbonyl)azetidin-3-yl]oxy}phenyl)-1-(pyridazin-4-yl)azetidine-3-carboxamide], the pIC50 is 7.14.

In turn, `CC(C)(C)CC(=O)N1CCC(Oc2ccc(NC(=O)C3CN(c4ccnnc4)C3)cc2)CC1` [Example 260, N-(4-{[1-(3,3-dimethylbutanoyl)piperidin-4-yl]oxy}phenyl)-1-(pyridazin-4-yl)azetidine-3-carboxamide] gave a pIC50 of 7.13.

Turning to `O=C(Nc1ccc(OC2CN(C(=O)C3CCC3)C2)cc1)C1CN(c2ccnnc2)C1` [Example 261, N-(4-{[1-(cyclobutylcarbonyl)azetidin-3-yl]oxy}phenyl)-1-(pyridazin-4-yl)azetidine-3-carboxamide], the pIC50 is 7.15.

Regarding `O=C(Nc1ccc(OC2CN(C(=O)C3CCCO3)C2)cc1)C1CN(c2ccnnc2)C1` (stereo not drawn) [Example 262, 1-(pyridazin-4-yl)-N-(4-{[1-(tetrahydrofuran-2-ylcarbonyl)azetidin-3-yl]oxy}phenyl)azetidine-3-carboxamide], the pIC50 is 6.92. Against the preceding compound, the pIC50 is 0.23 log units lower.

On to `CC(C)CCC(=O)N1CC(Oc2ccc(NC(=O)C3CN(c4ccnnc4)C3)cc2)C1` [Example 263, N-(4-{[1-(4-methylpentanoyl)azetidin-3-yl]oxy}phenyl)-1-(pyridazin-4-yl)azetidine-3-carboxamide], for which the pIC50 is 7.23.

For `CC(C)C(=O)N1CC(Oc2ccc(NC(=O)C3CN(c4ccnnc4)C3)cc2)C1` [Example 264, N-(4-{[1-(2-methylpropanoyl)azetidin-3-yl]oxy}phenyl)-1-(pyridazin-4-yl)azetidine-3-carboxamide], the pIC50 was 7.00. Against the preceding compound, the pIC50 is 0.23 log units lower.

For the compound `CC[C@H](C)C(=O)N1CC(Oc2ccc(NC(=O)C3CN(c4ccnnc4)C3)cc2)C1` [Example 265, N-[4-({1-[(2S)-2-methylbutanoyl]azetidin-3-yl}oxy)phenyl]-1-(pyridazin-4-yl)azetidine-3-carboxamide], the pIC50 was 7.15.

Take `CC(C)CC(=O)N1CCC(Oc2ccc(NC(=O)C3CN(c4ccnnc4)C3)cc2)CC1` [Example 266, N-(4-{[1-(3-methylbutanoyl)piperidin-4-yl]oxy}phenyl)-1-(pyridazin-4-yl)azetidine-3-carboxamide]: the pIC50 was 7.08.

As to `COCC(=O)N1CCC(Oc2ccc(NC(=O)C3CN(c4ccnnc4)C3)cc2)CC1` [Example 267, N-(4-{[1-(methoxyacetyl)piperidin-4-yl]oxy}phenyl)-1-(pyridazin-4-yl)azetidine-3-carboxamide], the pIC50 was 6.21. Against the preceding compound, the pIC50 is 0.87 log units lower.

For `O=C(Nc1ccc(OC2CCN(C(=O)CC(F)(F)F)CC2)cc1)C1CN(c2ccnnc2)C1` [Example 268, 1-(pyridazin-4-yl)-N-(4-{[1-(3,3,3-trifluoropropanoyl)piperidin-4-yl]oxy}phenyl)azetidine-3-carboxamide], the pIC50 is 7.08.

The compound `O=C(Nc1ccc(OC2CCN(C(=O)C(F)(F)c3ccccc3)CC2)cc1)C1CN(c2ccnnc2)C1` [Example 269, N-[4-({1-[difluoro(phenyl)acetyl]piperidin-4-yl}oxy)phenyl]-1-(pyridazin-4-yl)azetidine-3-carboxamide] gave a pIC50 of 7.22.

Take `O=C(Nc1ccc(OC2CCN(C(=O)C3CCC(F)(F)CC3)CC2)cc1)C1CN(c2ccnnc2)C1` [Example 270, N-[4-({1-[(4,4-difluorocyclohexyl)carbonyl]piperidin-4-yl}oxy)phenyl]-1-(pyridazin-4-yl)azetidine-3-carboxamide]: the negative logarithm of the IC50 (pIC50) is 7.20. This pIC50 and that of the compound before are within 0.2 log units of each other.

In turn, `O=C(Nc1ccc(OC2CCN(C(=O)c3ccc(F)cc3)CC2)cc1)C1CN(c2ccnnc2)C1` [Example 271, N-(4-{[1-(4-fluorobenzoyl)piperidin-4-yl]oxy}phenyl)-1-(pyridazin-4-yl)azetidine-3-carboxamide] showed a pIC50 of 7.29.

As for `O=C(Nc1ccc(OC2CCN(C(=O)c3cscn3)CC2)cc1)C1CN(c2ccnnc2)C1` [Example 272, 1-(pyridazin-4-yl)-N-(4-{[1-(1,3-thiazol-4-ylcarbonyl)piperidin-4-yl]oxy}phenyl)azetidine-3-carboxamide], the pIC50 is 7.10.

Compound `O=C(Nc1ccc(OC2CCN(C(=O)Cc3ccc(C(F)(F)F)cc3)CC2)cc1)C1CN(c2ccnnc2)C1` [Example 273, 1-(pyridazin-4-yl)-N-{4-[(1-{[4-(trifluoromethyl)phenyl]acetyl}piperidin-4-yl)oxy]phenyl}azetidine-3-carboxamide] had a pIC50 of 6.20.

`O=C(Nc1ccc(OC2CCN(C(=O)c3ccc(F)c(F)c3)CC2)cc1)C1CN(c2ccnnc2)C1` [Example 274, N-(4-{[1-(3,4-difluorobenzoyl)piperidin-4-yl]oxy}phenyl)-1-(pyridazin-4-yl)azetidine-3-carboxamide] had a pIC50 of 6.97.

With `O=C(Nc1ccc(OC2CCN(C(=O)Cc3ccc(OC(F)(F)F)cc3)CC2)cc1)C1CN(c2ccnnc2)C1` [Example 275, 1-(pyridazin-4-yl)-N-{4-[(1-{[4-(trifluoromethoxy)phenyl]acetyl}piperidin-4-yl)oxy]phenyl}azetidine-3-carboxamide], the pIC50 is 6.17.

Regarding `O=C(Nc1ccc(OC2CCN(C(=O)Cc3ccc(F)cc3)CC2)cc1)C1CN(c2ccnnc2)C1` [Example 276, N-[4-({1-[(4-fluorophenyl)acetyl]piperidin-4-yl}oxy)phenyl]-1-(pyridazin-4-yl)azetidine-3-carboxamide], the pIC50 was 6.89. Compared with the last compound, the pIC50 is 0.72 log units higher.

`O=C(Nc1ccc(OC2CCN(C(=O)Cc3ccc(F)cc3F)CC2)cc1)C1CN(c2ccnnc2)C1` [Example 277, N-[4-({1-[(2,4-difluorophenyl)acetyl]piperidin-4-yl}oxy)phenyl]-1-(pyridazin-4-yl)azetidine-3-carboxamide] had a pIC50 of 7.14.
